Assay results published in the NIST ThermoML archive (doi:10.1021/je900697w).

Assays:
[1] = xn = mol fraction of the nth substance listed; conditions: for surface tension liquid-gas: Ring tensiometer; for mass density: 101 kPa, Liquid, Vibrating tube method
[2] = 101 kPa, Liquid mixture 1, Ring tensiometer
[3] = for surface tension liquid-gas: Ring tensiometer; for mass density: 101.33 kPa, Liquid

CCCCCC[n+]1ccn(C)c1.O=S(=O)([N-]S(=O)(=O)C(F)(F)F)C(F)(F)F + C=CCCCCCC
[1], x2 = 0
Conditions | mass density [kg/m3] | surface tension liquid-gas [mN/m]
283.1 K | 1385.4 | 31.2
298.15 K | 1370.7 | 30.8
323.15 K | 1348 | 28.9
348.15 K | 1324 | 27.6

C=CCCCCCC [oct-1-ene] + CCCCCC[n+]1ccn(C)c1.O=S(=O)([N-]S(=O)(=O)C(F)(F)F)C(F)(F)F
[2]
Conditions | interfacial tension [mN/m]
283.1 K | 13.3
298.15 K | 13
323.15 K | 9.7
348.15 K | 4.4

[1]
Conditions | mass density [kg/m3] | surface tension liquid-gas [mN/m]
283.1 K, x1 = 0.05 | 1372.1 | 30.9
283.1 K, x1 = 0.1 | 1356 | 29.8
283.1 K, x1 = 0.139 | 1340 | –
283.1 K, x1 = 0.15 | – | 27.8
283.1 K, x1 = 0.154 | 1340 | –
283.1 K, x1 = 0.16 | – | 27.7
283.1 K, x1 = 1 | – | 22.5
298.15 K, x1 = 0.05 | 1358 | 30.3
298.15 K, x1 = 0.1 | 1342 | 29.4
298.15 K, x1 = 0.139 | 1328 | –
298.15 K, x1 = 0.15 | – | 27.4
298.15 K, x1 = 0.154 | 1326 | –
298.15 K, x1 = 0.19 | – | 27
298.15 K, x1 = 1 | – | 21.2
323.15 K, x1 = 0.05 | 1336 | 28.8
323.15 K, x1 = 0.1 | 1319 | 28.7
323.15 K, x1 = 0.139 | 1306 | –
323.15 K, x1 = 0.15 | – | 26.6
323.15 K, x1 = 0.154 | 1303 | –
323.15 K, x1 = 0.23 | – | 25.5
323.15 K, x1 = 1 | – | 18.5
348.15 K, x1 = 0.05 | 1313 | 27.4
348.15 K, x1 = 0.1 | 1300 | 27.2
348.15 K, x1 = 0.139 | 1282 | –
348.15 K, x1 = 0.15 | – | 26.3
348.15 K, x1 = 0.154 | 1279 | –
348.15 K, x1 = 0.28 | – | 25.3
348.15 K, x1 = 1 | – | 15.7

CCCCCC[n+]1ccn(C)c1.O=S(=O)([N-]S(=O)(=O)C(F)(F)F)C(F)(F)F
[3]
Conditions | mass density [kg/m3] | surface tension liquid-gas [mN/m]
283.1 K | 1385.4 | 31.2
298.15 K | 1370.7 | 30.8
323.15 K | 1348 | 28.9
348.15 K | 1324 | 27.6

C=CCCCCCC [oct-1-ene]
[3]
Conditions | surface tension liquid-gas [mN/m]
283.1 K | 22.5
298.15 K | 21.2
323.15 K | 18.5
348.15 K | 15.7

[3], Vibrating tube method
Conditions | mass density [kg/m3]
283.1 K | 723.5
298.15 K | 711.2
323.15 K | 690
348.15 K | 668
